Experimental data published in US20210380606A1, “5-AZAINDAZOLE DERIVATIVES AS ADENOSINE RECEPTOR ANTAGONISTS” (Merck Patent GmbH, priority 2018, published 2021).
Read-outs that look alike come from different tables or passages of the source.

Assays:
[1] = target: T1, human A2B receptors (Homo sapiens, UniProt P29275); assay: Functional human A2B receptor activity, recombinant HEK293 cells, cAMP (HTRF); format: cell-based; conditions: read-out: A2B (Category)
T1 construct: expressed in transfected cells; host or cells: HEK293
T1 sequence (P29275 1-332): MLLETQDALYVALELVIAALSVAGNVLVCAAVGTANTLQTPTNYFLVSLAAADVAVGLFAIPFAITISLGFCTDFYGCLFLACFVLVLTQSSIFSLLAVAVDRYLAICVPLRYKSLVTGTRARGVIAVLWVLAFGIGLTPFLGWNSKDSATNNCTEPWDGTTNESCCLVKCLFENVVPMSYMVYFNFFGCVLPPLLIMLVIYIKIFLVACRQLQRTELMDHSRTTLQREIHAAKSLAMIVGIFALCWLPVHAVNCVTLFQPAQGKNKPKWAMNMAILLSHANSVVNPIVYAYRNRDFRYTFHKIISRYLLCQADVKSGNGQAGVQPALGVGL
Summary of the method: (§1)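 Read-out is cellular cAMP measured by HTRF, added once a 15 min incubation had ended. cAMP reflects adenosine receptor signalling as the second messenger.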

[2] = target: T2, human A2A receptors (Homo sapiens, UniProt P29274); assay: Functional human A2A receptor activity, recombinant HEK293 cells, cAMP (HTRF); format: cell-based; conditions: read-out: A2A (Category)
T2 construct: expressed in transfected cells; host or cells: HEK293
Summary of the method: as §1

T2 sequence (P29274 whole entry): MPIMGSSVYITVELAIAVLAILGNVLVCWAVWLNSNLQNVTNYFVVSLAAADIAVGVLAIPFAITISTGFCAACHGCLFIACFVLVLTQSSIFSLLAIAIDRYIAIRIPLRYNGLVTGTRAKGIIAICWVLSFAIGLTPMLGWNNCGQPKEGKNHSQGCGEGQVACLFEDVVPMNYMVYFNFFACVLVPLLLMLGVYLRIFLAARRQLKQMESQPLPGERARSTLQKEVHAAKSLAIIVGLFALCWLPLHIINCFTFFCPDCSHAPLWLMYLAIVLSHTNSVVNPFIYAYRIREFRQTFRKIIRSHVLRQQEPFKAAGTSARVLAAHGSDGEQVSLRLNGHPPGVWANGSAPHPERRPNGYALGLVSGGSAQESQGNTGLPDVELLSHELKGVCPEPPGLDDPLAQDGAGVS

SMILES	IC50 [1] [nM]	IC50 [2] [nM]	IC50 ([1]; recombinant HEK293 cells expressing human A2B receptor, agonist NECA, cAMP HTRF, 15 min incubation) [nM]	IC50 ([2]; recombinant HEK293 cells expressing human A2A receptor, agonist NECA, cAMP HTRF, 15 min incubation) [nM]
CC(C)C1CC(O)CCN1C(=O)c1cc2c(cn1)c(-c1cnc3c(F)cc(F)cn13)nn2CC(F)(F)F (stereo not drawn) [Compound 141, [3-(6,8-Difluoro-imidazo[1,2-a]pyridin-3-yl)-1-(2,2,2-trifluoro-ethyl)-1H-pyrazolo[4,3-c]pyridin-6-yl]-(4-hydroxy-2-isopropyl-piperidin-1-yl)-methanone]	< 1000	< 100		
CC1(C)CC(O)CCN1C(=O)c1cc2c(cn1)c(-c1cnc3c(F)cc(F)cn13)nn2CC(F)(F)F (stereo not drawn) [Compound 142, [3-(6,8-Difluoro-imidazo[1,2-a]pyridin-3-yl)-1-(2,2,2-trifluoro-ethyl)-1H-pyrazolo[4,3-c]pyridin-6-yl]-(4-hydroxy-2,2-dimethyl-piperidin-1-yl)-methanone]	< 1000	< 100		
O=C(c1cc2c(cn1)c(-c1cnc3c(F)cc(F)cn13)nn2CC(F)(F)F)N1CCC(O)(c2cccnc2)CC1 [Compound 147, [3-(6,8-Difluoro-imidazo[1,2-a]pyridin-3-yl)-1-(2,2,2-trifluoro-ethyl)-1H-pyrazolo[4,3-c]pyridin-6-yl]-(4′-hydroxy-3′,4′,5′,6′-tetrahydro-2′H-[3,4′]bipyridinyl-1′-yl)-methanone]	< 1000	< 100		
O=C(c1cc2c(cn1)c(-c1cnc3c(F)cc(F)cn13)nn2CC(F)(F)F)N1CCC(O)(C(F)(F)F)CC1 [Compound 148, [3-(6,8-Difluoro-imidazo[1,2-a]pyridin-3-yl)-1-(2,2,2-trifluoro-ethyl)-1H-pyrazolo[4,3-c]pyridin-6-yl]-(4-hydroxy-4-trifluoromethyl-piperidin-1-yl)-methanone]	< 1000	< 1000		
O=C(c1cc2c(cn1)c(-c1cnc3c(F)cc(F)cn13)nn2CC(F)(F)F)N1CC2COCC2C1 (stereo not drawn) [Compound 154, [3-(6,8-Difluoro-imidazo[1,2-a]pyridin-3-yl)-1-(2,2,2-trifluoro-ethyl)-1H-pyrazolo[4,3-c]pyridin-6-yl]-(tetrahydro-furo[3,4-c]pyrrol-5-yl)-methanone]			< 1000	< 100
O=C(c1cc2c(cn1)c(-c1cnc3c(F)cc(F)cn13)nn2CC(F)(F)F)N1CCCC(F)(F)C1 [Compound 159, [3-(6,8-Difluoro-imidazo[1,2-a]pyridin-3-yl)-1-(2,2,2-trifluoro-ethyl)-1H-pyrazolo[4,3-c]pyridin-6-yl]-(3,3-difluoro-piperidin-1-yl)-methanone]	< 1000	< 100		
O=C(c1cc2c(cn1)c(-c1cnc3c(F)cc(F)cn13)nn2CC(F)(F)F)N1CCC2(CC1)COC2 [Compound 166, [3-(6,8-Difluoro-imidazo[1,2-a]pyridin-3-yl)-1-(2,2,2-trifluoro-ethyl)-1H-pyrazolo[4,3-c]pyridin-6-yl]-(2-oxa-7-aza-spiro[3.5]non-7-yl)-methanone]	< 1000	< 100		
O=C(c1cc2c(cn1)c(-c1cnc3c(F)cc(F)cn13)nn2CC(F)(F)F)N1[C@@H]2CC[C@H]1C[C@@H](O)C2 [Compound 168, [3-(6,8-Difluoro-imidazo[1,2-a]pyridin-3-yl)-1-(2,2,2-trifluoro-ethyl)-1H-pyrazolo[4,3-c]pyridin-6-yl]-(3-endo-hydroxy-8-aza-bicyclo[3.2.1]oct-8-yl)-methanone]	< 100	< 100		
O=C(c1cc2c(cn1)c(-c1cnc3c(F)cc(F)cn13)nn2CC(F)(F)F)N1CC2CC3CC(C2)CC1C3 [Compound 169, (4-Aza-tricyclo[4.3.1.1*3,8*]undec-4-yl)-[3-(6,8-difluoro-imidazo[1,2-a]pyridin-3-yl)-1-(2,2,2-trifluoro-ethyl)-1H-pyrazolo[4,3-c]pyridin-6-yl]-methanone]	< 100	< 100		

Second part, led by results:

IC50 [1] [nM]	IC50 [2] [nM]	SMILES	IC50 ([1]; recombinant HEK293 cells expressing human A2B receptor, agonist NECA, cAMP HTRF, 15 min incubation) [nM]	IC50 ([2]; recombinant HEK293 cells expressing human A2A receptor, agonist NECA, cAMP HTRF, 15 min incubation) [nM]
< 100	< 100	O=C(c1cc2c(cn1)c(-c1cnc3c(F)cc(F)cn13)nn2CC(F)(F)F)N1CC2CCC(C2)C1 [Compound 139, (3-Aza-bicyclo[3.2.1]oct-3-yl)-[3-(6,8-difluoro-imidazo[1,2-a]pyridin-3-yl)-1-(2,2,2-trifluoro-ethyl)-1H-pyrazolo[4,3-c]pyridin-6-yl]-methanone]		
< 1000	< 100	CC(C)CC1CN(C(=O)c2cc3c(cn2)c(-c2cnc4c(F)cc(F)cn24)nn3CC(F)(F)F)CCC1O (stereo not drawn) [Compound 143, [3-(6,8-Difluoro-imidazo[1,2-a]pyridin-3-yl)-1-(2,2,2-trifluoro-ethyl)-1H-pyrazolo[4,3-c]pyridin-6-yl]-(4-hydroxy-3-isobutyl-piperidin-1-yl)-methanone]		
< 1000	< 100	O=C(c1cc2c(cn1)c(-c1cnc3c(F)cc(F)cn13)nn2CC(F)(F)F)N1CCC(F)CC1 [Compound 144, [3-(6,8-Difluoro-imidazo[1,2-a]pyridin-3-yl)-1-(2,2,2-trifluoro-ethyl)-1H-pyrazolo[4,3-c]pyridin-6-yl]-(4-fluoro-piperidin-1-yl)-methanone]		
< 1000	< 100	O=C(c1cc2c(cn1)c(-c1cnc3c(F)cc(F)cn13)nn2CC(F)(F)F)N1CCC(F)(F)CC1 [Compound 146, [3-(6,8-Difluoro-imidazo[1,2-a]pyridin-3-yl)-1-(2,2,2-trifluoro-ethyl)-1H-pyrazolo[4,3-c]pyridin-6-yl]-(4,4-difluoro-piperidin-1-yl)-methanone]		
< 1000	< 100	COCC1CCCN1C(=O)c1cc2c(cn1)c(-c1cnc3c(F)cc(F)cn13)nn2CC(F)(F)F (stereo not drawn) [Compound 149, [3-(6,8-Difluoro-imidazo[1,2-a]pyridin-3-yl)-1-(2,2,2-trifluoro-ethyl)-1H-pyrazolo[4,3-c]pyridin-6-yl]-(2-methoxymethyl-pyrrolidin-1-yl)-methanone]		
< 1000	< 100	O=C(c1cc2c(cn1)c(-c1cnc3c(F)cc(F)cn13)nn2CC(F)(F)F)N1CCCC(O)C1 (stereo not drawn) [Compound 151, [3-(6,8-Difluoro-imidazo[1,2-a]pyridin-3-yl)-1-(2,2,2-trifluoro-ethyl)-1H-pyrazolo[4,3-c]pyridin-6-yl]-(3-hydroxy-piperidin-1-yl)-methanone]		
< 1000	< 100	O=C(c1cc2c(cn1)c(-c1cnc3c(F)cc(F)cn13)nn2CC(F)(F)F)N1CCCC(CO)C1 (stereo not drawn) [Compound 161, [3-(6,8-Difluoro-imidazo[1,2-a]pyridin-3-yl)-1-(2,2,2-trifluoro-ethyl)-1H-pyrazolo[4,3-c]pyridin-6-yl]-(3-hydroxymethyl-piperidin-1-yl)-methanone]		
< 1000	< 100	CC1(O)C2CCC1CN(C(=O)c1cc3c(cn1)c(-c1cnc4c(F)cc(F)cn14)nn3CC(F)(F)F)C2 (stereo not drawn) [Compound 162, [3-(6,8-Difluoro-imidazo[1,2-a]pyridin-3-yl)-1-(2,2,2-trifluoro-ethyl)-1H-pyrazolo[4,3-c]pyridin-6-yl]-(8-endo-hydroxy-8-exo-methyl-3-aza-bicyclo[3.2.1]oct-3-yl)-methanone]		
< 1000	< 100	O=C(c1cc2c(cn1)c(-c1cnc3c(F)cc(F)cn13)nn2CC(F)(F)F)N1CCC(CO)CC1 [Compound 165, [3-(6,8-Difluoro-imidazo[1,2-a]pyridin-3-yl)-1-(2,2,2-trifluoro-ethyl)-1H-pyrazolo[4,3-c]pyridin-6-yl]-(4-hydroxymethyl-piperidin-1-yl)-methanone]		
